For data set [1], the system named is IL-1β secretion in BMDM cells (NLRP3 inflammasome). Briefly: ELISA of IL-1β secretion in LPS/nigericin-treated BMDM cells. As to conditions: Mus musculus; 20 µM; LPS/nigericin-treated BMDM cells; mean ± S.E.M. (n = 3); read-out: IL-1β Inhibition Rate (%). The format is cell-based. As to the method: When L929 cells reach the logarithmic phase, collect the cell supernatant. Filter the supernatant using a 0.22 μm filter and store it at −20 °C for future use. The 7-week-old C57BL/6 mice were selected as the source of primary bone marrow macrophages. The mice were euthanized using the cervical dislocation method. The ends of the femurs were cut, and the bone marrow was flushed into a 15 mL centrifuge tube using a 5 mL syringe. Once all the bone marrow was collected, an appropriate amount of red blood cell lysis buffer was added to the centrifuge tube. The mixture was incubated for 3–5 min, with repeated pipetting to thoroughly lyse the red blood cells. The cells were then centrifuged and collected. Add 30–40% L929 cell supernatant or M-CSF stimulatory factor to the culture dish. Culture the cells in a cell incubator at 37 °C with 5% CO2. Observe the cell condition daily, and once most cells have adhered to the surface, proceed with subsequent experiments.
Inoculate 1.0 × 10^5 BMDMs cells per well into a 96 well plate and culture overnight. Stimulate the cells with lipopolysaccharide (LPS) at a concentration of 0.2 μg/mL for 3 h, then add different concentrations of the test compounds and incubate for 30 min. Finally, add Nigericin at a concentration of 10 μM to continue the induction for 30 min. Collect the cell supernatant and measure the IL-1β secretion level in the supernatant using an ELISA kit, following the instructions provided, and calculate the IC50 value based on the relevant calculations. To ensure the accuracy and reliability of the experimental results, all experiments were repeated three times, with each experiment performed independently.
On the technique in general: An ELISA detects its analyte on a solid surface through an enzyme-linked reagent.

The nature of data set [2]: MTT assay, HepaRG cytotoxicity. The format is cell-based. Particulars: human, HepaRG cells, n = 3. The procedure: HepaRG cells in the logarithmic growth phase (10^5 cells/mL), inoculate them into a 96-well plate, and culture overnight in a 37 °C, 5% CO2 incubator. Add compounds at different concentrations and continue culturing for 24 h. Add 20 μL of MTT solution, incubate for 4 h, discard the supernatant, and add DMSO to dissolve.

What is called inhibition is the drop in the measured response relative to a control, in per cent. By IC50 is commonly meant the concentration at which inhibition is half-maximal. A lower IC50 goes with higher potency.

For `O=C(/C=C/c1ccc(O)cc1)c1ccc(Cl)cc1` [Compound W7, (E)-1-(4-chlorophenyl)-3-(4-hydroxyphenyl)propyl-2-en-1-one], in data set [1], the inhibition at 20 µM stood at 24.3 ± 3.67%. The same molecule displayed an IC50 at 24 h in data set [2] above 50 µM. Take `O=C(/C=C/c1cccc(O)c1)c1ccc(Br)cc1` [Compound F10, (E)-1-(4-bromophenyl)-3-(3-hydroxyphenyl)propyl-2-en-1-one]: the inhibition at 20 µM in data set [1] turned out to be 24.2 ± 7.91%. Also, the IC50 at 24 h in data set [2] was above 50 µM.

Turning to `O=C(/C=C/c1ccccc1O)c1cccs1` [Compound F16, (E)-3-(2-hydroxyphenyl)-1-(thiophene-2-yl)propion-2-en-1-one], in data set [1], the inhibition at 20 µM stood at 92.6 ± 3.23%. In data set [2], this molecule displayed an IC50 at 24 h above 50 µM. For the molecule `O=C(/C=C/c1ccc(O)cc1)c1cccc2ccccc12` [Compound W11, (E)-3-(4-hydroxyphenyl)-1-(naphthalene-1-yl)propyl-2-en-1-one], the inhibition at 20 µM in data set [1] worked out at 88.3 ± 7.01%. For the same molecule, the 50% inhibitory concentration (IC50) at 24 h in data set [2] is above 50 µM. For the molecule `O=C(/C=C/c1cccc(O)c1)c1cccc(F)c1` [Compound F13, (E)-1-(3-fluorophenyl)-3-(3-hydroxyphenyl)propyl-2-en-1-one], the inhibition at 20 µM in data set [1] came to 34 ± 8.74%. The IC50 at 24 h in data set [2] is above 50 µM. On to `Cc1ccc(C(=O)/C=C/c2cccc(O)c2)cc1C` [Compound F12, (E)-1-(3,4-dimethylphenyl)-3-(3-hydroxyphenyl)propyl-2-en-1-one], for which, in data set [1], the inhibition at 20 µM was found to be 15.4 ± 4.13%. The molecule further showed an IC50 at 24 h in data set [2] above 50 µM. Regarding `O=C(/C=C/c1ccccc1O)c1ccc(Cl)cc1` [Compound F8, (E)-1-(4-chlorophenyl)-3-(2-hydroxyphenyl)propyl-2-en-1-one], in data set [1], the inhibition at 20 µM came out at 45.9 ± 3.45%. In addition, the IC50 at 24 h in data set [2] was above 50 µM. The corresponding values for `O=C(/C=C/c1cccc(O)c1)c1ccccc1` [Compound F4, (E)-3-(3-hydroxyphenyl)-1-phenylpropyl-2-en-1-one] are 25.6 ± 9.03% and above 50 µM.

In the case of `O=C(/C=C/c1ccccc1O)c1ccccc1` [Compound F1], the inhibition at 20 µM in data set [1] worked out at 52.1 ± 3.72%. The molecule also came in with an IC50 at 24 h in data set [2] above 50 µM. The corresponding values for `COc1cccc(C(=O)/C=C/c2ccc(O)cc2)c1` [Compound W2, (E)-3-(4-hydroxyphenyl)-1-(3-methoxyphenyl)propyl-2-en-1-one] are 67 ± 1.23% and above 50 µM. As for `Cc1ccc(C(=O)/C=C/c2ccc(O)cc2)c(C)c1` [Compound W8, (E)-1-(2,4-dimethylphenyl)-3-(4-hydroxyphenyl)propyl-2-en-1-one], the inhibition at 20 µM in data set [1] was determined as 88.9 ± 5.91%. In data set [2], the IC50 at 24 h is above 50 µM.

Take `O=C(/C=C/c1ccccc1O)c1ccc(Br)cc1` [Compound F9, (E)-1-(4-bromophenyl)-3-(2-hydroxyphenyl)propyl-2-en-1-one]: the inhibition at 20 µM in data set [1] was found to be 28.4 ± 5.76%. Further, in data set [2], the IC50 at 24 h was above 50 µM. `CC(C)(O)c1coc(S(=O)(=O)NC(=O)Nc2c3c(cc4c2CCC4)CCC3)c1` [MCC950, reference compound] registered an IC50 at 24 h in data set [2] above 50 µM.

On to `O=C(/C=C/c1ccccc1O)c1ccccc1Cl` [Compound F7, (E)-1-(2-chlorophenyl)-3-(2-hydroxyphenyl)propyl-2-en-1-one], for which the inhibition at 20 µM in data set [1] worked out at 94.8 ± 3.29%. The IC50 at 24 h in data set [2] is above 50 µM. In the case of `COc1ccc(C(=O)/C=C/c2cccc(O)c2)cc1` [Compound F6, (E)-3-(3-hydroxyphenyl)-1-(4-methoxyphenyl)propyl-2-en-1-one], in data set [1], the inhibition at 20 µM turned out to be 25.1 ± 2.84%. Moreover, in data set [2], the IC50 at 24 h was above 50 µM.

In the case of `COc1ccc(C(=O)/C=C/c2ccc(O)cc2)cc1` [Compound W4, (E)-3-(4-hydroxyphenyl)-1-(4-methoxyphenyl)propyl-2-en-1-one], the inhibition at 20 µM in data set [1] turned out to be 6.89 ± 4.78%. In data set [2], this molecule showed an IC50 at 24 h above 50 µM. Turning to `O=C(/C=C/c1ccc(O)cc1)c1ccccc1` [Compound W1, (E)-3-(4-hydroxyphenyl)-1-phenylprop-2-en-1-one], in data set [1], the inhibition at 20 µM is 17.8 ± 3.45%. Besides, the IC50 at 24 h in data set [2] was above 50 µM. The corresponding values for `COc1cccc(C(=O)/C=C/c2cccc(O)c2)c1` [Compound F3, (E)-3-(3-hydroxyphenyl)-1-(3-methoxyphenyl)propyl-2-en-1-one] are 93.4 ± 2.98% and above 50 µM. The corresponding values for `Cc1ccc(C(=O)/C=C/c2ccc(O)cc2)cc1C` [Compound W9, (E)-1-(3,4-dimethylphenyl)-3-(4-hydroxyphenyl)propyl-2-en-1-one] are 10.3 ± 6.43% and above 50 µM.

On to `Cc1ccc(C(=O)/C=C/c2ccccc2O)c(C)c1` [Compound F11, (E)-1-(2,4-dimethylphenyl)-3-(2-hydroxyphenyl)propyl-2-en-1-one], for which, in data set [1], the inhibition at 20 µM worked out at 88.7 ± 9.22%. In data set [2], this molecule showed an IC50 at 24 h above 50 µM. On to `O=C(/C=C/c1ccccc1O)c1cccc2ccccc12` [Compound F15, (E)-3-(2-hydroxyphenyl)-1-(naphthale-1-yl)propyl-2-en-1-one], for which the inhibition at 20 µM in data set [1] came to 91.7 ± 5.89%. This molecule also yielded an IC50 at 24 h in data set [2] above 50 µM. The corresponding values for `O=C(/C=C/c1ccc(O)cc1)c1ccccc1Cl` [Compound W5, (E)-1-(2-chlorophenyl)-3-(4-hydroxyphenyl)propion-2-en-1-one] are 51.7 ± 2.23% and above 50 µM. Turning to `O=C(/C=C/c1ccc(O)cc1)c1cccc(Cl)c1` [Compound W3, (E)-1-(3-chlorophenyl)-3-(4-hydroxyphenyl)propyl-2-en-1-one], the inhibition at 20 µM in data set [1] worked out at 21.8 ± 9.56%. The IC50 at 24 h in data set [2] was above 50 µM.

Consider `O=C(/C=C/c1ccc(O)cc1)c1cccc(F)c1` [Compound W10, (E)-1-(3-fluorophenyl)-3-(4-hydroxyphenyl)propyl-2-en-1-one], for which the inhibition at 20 µM in data set [1] stood at 33.6 ± 3.21%. For the same molecule, the IC50 at 24 h in data set [2] is above 50 µM.

The values above are taken from publication PMC12388496, “Discovery of (E)-1,3-Diphenyl-2-Propen-1-One Derivatives as Potent and Orally Active NLRP3 Inflammasome Inhibitors for Colitis” (Molecules, 2025).
